Experiments:
Type in all cases: cell-based, monkey
COS7 cells [1] = assay: Cell viability after UV irradiation by trypan blue exclusion
Procedure: COS7 (monkey kidney) cells were grown in DMEM high glucose (Gibco no. 11995; with L-glutamine and Na-pyruvate)+10% FCS. Typically, 3 cm2 of cells are needed for a cross-linking experiment with detection by western blotting. At about 70%, medium was replaced by LM-4 (DMEM lacking Met, Leu, Ile and Val and phenol red, supplemented with 5% dialyzed FCS) or by LM-2 (LM-4+1 mM of each Ile and Val). Photo-amino acids were added to a final concentration of 4 mM photo-Leu and photo-Ile, 1.7 mM photo-Met and cells were cultivated for further 22 h followed by washing with PBS and UV-irradiation using a 200 W high pressure mercury lamp (Oriel Photomax) with a glass filter to remove wavelengths shorter 310 nm. The samples were placed at a distance of 38 cm to the light source, corresponding to a illuminated area of 105 mm diameter. […] We used an irradiation time 1-3 min for experiments with living cells. […] Lysis of cells, SDS-PAGE and western blotting were done as described^33. For immunoprecipitation, cells were lysed in 20 mM Hepes/NaOH pH 7.4, 100 mM NaCl, 5 mM EDTA, 1% Triton X 100, 0.5% sodium deoxycholate, the lysate was cleared with protein-A beads and incubated with beads that were preincubated with polyclonal anti-myc or anti-HA antibody. Beads were collected and washed three times each with 20 mM Hepes/NaOH pH 7.25, 0.5% CHAPS and with 100 mM Tris-HCl pH 8.3, 150 mM NaCl, 2 mM EDTA, 0.1% w/v SDS, 0.5% w/v Nonidet P40, 0.5% w/v sodiumdeoxycholate. Proteins were eluted from beads by heating with reducing SDS-PAGE sample buffer.
(§1) Unnatural amino acids frequently are toxic to cells. To find out if this is the case for photo-amino acids of the invention, we monitored in COS7 cells protein biosynthesis by incorporation of [^3H]Phe and viability by trypan blue exclusion of cells grown in the presence or absence of the photo-amino acids photo-Leu, photo-Met and photo-Ile. Due to the lack of two essential amino acids in the growth medium, protein biosynthesis is reduced to about 65% of that in a full growth medium. […] Although cells grew slightly slower than in full growth medium, viability (Table 2) and cell morphology (not shown) were unaffected.

COS7 cells [2] = assay: Protein biosynthesis by incorporation of [3H]Phe
From the text: as §1

COS7 cells [3] = assay: Incorporation of [1-14C]photo-Met and [3H]Phe into newly synthesized protein
Procedure: Cells were washed 6 times with PBS and lysed in 0.5% Triton X-100, 0.2% sodium deoxycholate. Aggregated DNA was removed, protein was precipitated^43, the pellet was redissolved in 0.3 ml 0.5% SDS and subjected to a second round of precipitation. […] The dried pellet was redissolved and processed for scintillation counting (data of Table 1 and FIG. 4b) or processed as follows for amino acid analysis (FIG. 2b): the pellet was dissolved in 600 µl 50 mM NH4HCO3, 0.5% SDS, 3 mM CaCl2 containing 0.25 mg pronase (Roche) followed by incubation at 37° C. for 20 h. The sample was lyophilized, dissolved in 600 μl of 7 N HCl containing 4 mg of glutamic acid and 6 mg of photo-Met and heated to 70° C. for 24 h. A Dowex 50WX8 column (1.6×24 cm) was prepared^18 and equilibrated with 0.1 M sodium citrate pH 3.8. The sample was concentrated to 50 μl in a speed-vak, diluted to 1 ml with 0.1 M sodium citrate pH 3.8, and loaded onto the column. The column was eluted at 24° C. at a flow rate of 20 ml/h with 70 ml 0.1 M sodium citrate pH 3.8, 26 ml 0.1 M sodium citrate pH 4.3 and 100 ml of 0.1 M sodium citrate pH 4.5. Fractions of 3 ml were collected and assayed for absorbance at 350 nm, radioactivity by scintillation counting, and amino groups by the fluorescamine method^44.
To decrease competition for activation by tRNA synthetases, media devoid of the structurally related amino acids Leu and Met (LM-2) or, for some experiments, devoid of Leu, Met, Ile and Val (LM-4) were used. Proteins incorporated radioactivity as shown by autoradiography after separation by SDS-PAGE (FIG. 2a, lane 3). […] 88% of the radioactivity in the labeled proteins was intact [1-^14C]photo-Met (FIG. 2b, photo-Met). A small peak eluting slightly earlier than glutamic acid (FIG. 2 B, Glu) contained 7% of the radioactivity. This peak was also observed if free [1-^14C]photo-Met was heated with HCl under the conditions of the hydrolysis (data not shown) and therefore represents a product of thermal decomposition of the amino acid. Under the conditions employed, radioactivity originating from degradation/re-integration would be expected to appear as aspartate and glutamate (oxidative release of [^14C]CO2, metabolism via pyruvate carboxylase, citric acid cycle and transamination to Gln and Asn that will be hydrolyzed to Glu and Asp by hot HCl). However, no radioactivity was incorporated via this pathway. We conclude that at least 95% of incorporated radioactivity represents intact [1-^14C]photo-Met. To obtain quantitative data on the frequency of incorporation of photo-Met into newly synthesized protein, we performed co-labeling with [1-^14C]photo-Met and [^3H]Phe. […] Two in three hundred amino acids in newly synthesized protein will be photo-Met.

CC1(CCC(N)C(=O)O)N=N1 [photo-Met, L-2-amino-5,5′-azi-hexanoic acid]
Cell viability (COS7 cells [1]; 1 min UV): 99.4 ± 0.5% | Cell viability (COS7 cells [1]; 1 min UV + 1 h chase): 96.1 ± 1.3% | Cell viability (COS7 cells [1]; 3 min UV): 99.5 ± 0.4% | Cell viability (COS7 cells [1]; 3 min UV + 1 h chase): 91.9 ± 6.8% | Cell viability (COS7 cells [1]; no UV + 1 h chase at 37 degree Celsius in PBS): 99.4 ± 0.4% | Cell viability (COS7 cells [1]; no UV, percent ± SD of viable cells): 99.8 ± 0.3% | Protein synthesis (COS7 cells [2]; LM-2 medium supplement, value in full DMEM medium set to 100, average ± SD of triplicate): 76.0 ± 6.4 | effect on protein biosynthesis (COS7 cells [2]; addition to LM-2 medium): increased protein biosynthesis | frequency of substitution of photo-Met for Met (COS7 cells [3]): 35%
